The target of assay [1] is T1, Cholinesterase (Equus caballus, UniProt P81908). The experiment in a line: Inhibition of horse BChE using butyrylthiocholine as substrate measured for 5 mins by Ellman's method. For orientation: Ellman's reagent forms a yellow product with free thiols.
Assay [2] concerns the target T2, Acetylcholinesterase (Electrophorus electricus, UniProt O42275). As to the kind of experiment: Inhibition of electric eel AChE using acetylthiocholine iodide as substrate preincubated for 5 mins followed by substrate addition measured after 2 mins by Ellman's method.
Assay [3] concerns the target T2, Acetylcholinesterase. As to the kind of experiment: Inhibition of electric eel AChE using acetylthiocholine iodide as substrate incubated for 5 mins followed by substrate addition by Ellman's method.
Assay [4] deals with T3, Butyrylcholinesterase (Rattus norvegicus, UniProt Q9JKC1). As to the kind of experiment: Inhibition of Sprague-Dawley rat serum BChE using butyrylthiocholine iodide as substrate incubated for 15 mins by Ellman's method.
T3 sequence (Q9JKC1 whole entry): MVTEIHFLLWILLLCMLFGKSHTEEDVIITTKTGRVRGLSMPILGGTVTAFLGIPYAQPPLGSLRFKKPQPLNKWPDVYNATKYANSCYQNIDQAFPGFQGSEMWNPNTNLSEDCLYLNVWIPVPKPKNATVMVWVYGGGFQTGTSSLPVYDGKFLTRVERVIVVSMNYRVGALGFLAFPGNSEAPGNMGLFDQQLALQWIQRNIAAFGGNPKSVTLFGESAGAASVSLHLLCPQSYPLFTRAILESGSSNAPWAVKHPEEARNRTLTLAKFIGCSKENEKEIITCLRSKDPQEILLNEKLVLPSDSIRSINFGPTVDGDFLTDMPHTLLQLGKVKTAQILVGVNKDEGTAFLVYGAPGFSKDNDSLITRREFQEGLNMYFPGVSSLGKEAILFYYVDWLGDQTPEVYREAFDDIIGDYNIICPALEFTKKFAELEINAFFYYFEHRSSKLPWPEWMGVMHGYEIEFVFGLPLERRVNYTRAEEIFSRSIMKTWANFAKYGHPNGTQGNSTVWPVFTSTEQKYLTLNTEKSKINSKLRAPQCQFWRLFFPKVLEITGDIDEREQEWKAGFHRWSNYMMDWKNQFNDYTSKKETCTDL
The target of assay [5] is T4, Acetylcholinesterase (Rattus norvegicus, UniProt P37136).
T4 sequence (P37136 whole entry): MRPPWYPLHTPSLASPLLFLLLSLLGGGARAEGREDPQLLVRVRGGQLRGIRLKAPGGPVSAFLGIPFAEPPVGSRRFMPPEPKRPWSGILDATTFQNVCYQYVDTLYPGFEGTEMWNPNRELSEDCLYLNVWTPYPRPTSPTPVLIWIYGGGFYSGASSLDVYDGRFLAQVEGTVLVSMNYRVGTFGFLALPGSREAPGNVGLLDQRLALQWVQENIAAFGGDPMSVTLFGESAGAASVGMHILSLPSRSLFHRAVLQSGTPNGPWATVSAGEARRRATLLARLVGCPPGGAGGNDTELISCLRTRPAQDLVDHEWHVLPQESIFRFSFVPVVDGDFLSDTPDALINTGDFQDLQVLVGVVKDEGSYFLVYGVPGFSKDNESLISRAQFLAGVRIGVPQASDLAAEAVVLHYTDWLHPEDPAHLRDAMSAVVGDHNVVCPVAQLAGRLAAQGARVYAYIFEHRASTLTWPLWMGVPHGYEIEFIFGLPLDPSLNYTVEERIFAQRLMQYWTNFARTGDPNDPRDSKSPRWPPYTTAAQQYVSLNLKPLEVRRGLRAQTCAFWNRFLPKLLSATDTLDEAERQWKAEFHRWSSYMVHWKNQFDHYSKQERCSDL
As to the kind of experiment: Inhibition of Sprague-Dawley rat cortex AChE using acetylthiocholine iodide as substrate incubated for 15 mins in presence of iso-OMPA inhibitor by Ellman's method.

Another assay has as its target Carbonic anhydrase 1 (Homo sapiens, UniProt P00915). As to the kind of experiment: Binding affinity to human CA1 assessed as inhibition constant using p-nitrophenylacetate as substrate by spectrophotometry.
Assay [6] deals with T5, Acetylcholinesterase (Homo sapiens, UniProt P22303). As to the kind of experiment: Binding affinity to human AChE assessed as inhibition constant using acetylthiocholine iodide as substrate preincubated for 10 mins followed by substrate addition by Ellman's method.
T5 sequence (P22303 whole entry): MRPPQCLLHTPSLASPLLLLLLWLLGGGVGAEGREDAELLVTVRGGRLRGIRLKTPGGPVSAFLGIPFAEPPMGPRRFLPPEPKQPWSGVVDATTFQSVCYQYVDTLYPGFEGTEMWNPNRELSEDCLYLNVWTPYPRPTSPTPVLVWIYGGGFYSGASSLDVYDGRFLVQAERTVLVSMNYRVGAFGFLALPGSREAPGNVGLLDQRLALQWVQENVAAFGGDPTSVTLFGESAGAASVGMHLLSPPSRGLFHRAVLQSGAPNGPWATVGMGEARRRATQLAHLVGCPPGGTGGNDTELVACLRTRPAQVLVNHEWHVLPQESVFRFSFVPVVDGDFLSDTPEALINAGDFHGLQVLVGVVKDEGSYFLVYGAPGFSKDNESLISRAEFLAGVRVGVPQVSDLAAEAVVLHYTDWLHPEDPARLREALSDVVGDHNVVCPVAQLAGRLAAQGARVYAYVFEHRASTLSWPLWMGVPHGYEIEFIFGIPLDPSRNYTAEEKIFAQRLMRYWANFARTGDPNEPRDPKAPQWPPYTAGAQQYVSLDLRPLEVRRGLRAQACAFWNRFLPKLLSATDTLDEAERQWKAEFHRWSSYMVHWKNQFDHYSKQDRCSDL
Another assay has as its target Carbonic anhydrase 2 (Homo sapiens, UniProt P00918). As to the kind of experiment: Binding affinity to human CA2 assessed as inhibition constant using p-nitrophenylacetate as substrate by spectrophotometry.
For assay [7], the target named is Fatty-acid amide hydrolase 1 (Rattus norvegicus, UniProt P97612). As to the kind of experiment: Displacement of [14C]-ethanolamine from FAAH derived from rat brain membrane fraction preincubated for 20 mins followed by susbstrate addition by scintillation counting method. The format is cell membranes.
Fatty-acid amide hydrolase 1, sequence (P97612 whole entry): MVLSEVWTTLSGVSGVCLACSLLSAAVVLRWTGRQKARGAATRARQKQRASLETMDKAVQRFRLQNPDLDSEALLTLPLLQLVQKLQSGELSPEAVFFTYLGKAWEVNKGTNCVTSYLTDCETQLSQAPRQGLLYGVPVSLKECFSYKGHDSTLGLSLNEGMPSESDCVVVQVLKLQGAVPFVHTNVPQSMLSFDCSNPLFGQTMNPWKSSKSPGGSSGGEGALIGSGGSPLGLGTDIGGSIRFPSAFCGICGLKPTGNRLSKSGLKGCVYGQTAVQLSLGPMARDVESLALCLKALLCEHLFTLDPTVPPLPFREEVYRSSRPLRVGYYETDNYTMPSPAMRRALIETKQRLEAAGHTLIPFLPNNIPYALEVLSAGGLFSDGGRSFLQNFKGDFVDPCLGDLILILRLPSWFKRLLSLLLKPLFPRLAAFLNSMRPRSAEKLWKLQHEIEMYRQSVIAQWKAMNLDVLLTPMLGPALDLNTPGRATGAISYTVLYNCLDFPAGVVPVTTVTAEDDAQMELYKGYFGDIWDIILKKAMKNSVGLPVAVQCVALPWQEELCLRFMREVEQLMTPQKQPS
The target of assay [8] is Cholinesterase (Homo sapiens, UniProt P06276). The experiment in a line: Inhibition of recombinant human serum BChE using butyrylthiocholine iodide as substrate preincubated for 20 mins followed by substrate addition measured for 45 to 90 mins by Ellman's method.
Cholinesterase (Homo sapiens, UniProt P06276), sequence (P06276 whole entry): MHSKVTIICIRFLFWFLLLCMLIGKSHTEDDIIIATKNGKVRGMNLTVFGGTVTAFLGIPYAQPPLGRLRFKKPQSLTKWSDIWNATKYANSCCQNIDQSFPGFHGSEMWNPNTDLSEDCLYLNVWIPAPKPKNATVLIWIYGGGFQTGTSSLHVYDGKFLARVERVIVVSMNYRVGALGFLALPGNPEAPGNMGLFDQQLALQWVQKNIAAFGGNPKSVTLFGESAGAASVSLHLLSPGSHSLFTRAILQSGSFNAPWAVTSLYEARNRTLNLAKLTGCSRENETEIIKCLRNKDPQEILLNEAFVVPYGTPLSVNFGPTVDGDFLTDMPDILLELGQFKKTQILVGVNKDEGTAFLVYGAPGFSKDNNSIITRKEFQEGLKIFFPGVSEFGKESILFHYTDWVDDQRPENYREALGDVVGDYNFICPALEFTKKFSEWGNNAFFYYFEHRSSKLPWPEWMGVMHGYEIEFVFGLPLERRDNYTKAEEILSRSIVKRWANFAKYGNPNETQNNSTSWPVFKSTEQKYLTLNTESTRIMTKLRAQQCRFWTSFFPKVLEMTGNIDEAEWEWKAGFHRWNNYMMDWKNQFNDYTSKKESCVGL
Assay [9] addresses Cholinesterases; ACHE & BCHE (Homo sapiens) (UniProt P06276+P22303). The experiment in a line: Selectivity index, ratio of IC50 for recombinant human serum AChE to IC50 for recombinant human serum BChE. The format is protein assay.
Assay [10] has as its target T3, Butyrylcholinesterase. As to the kind of experiment: Inhibition of rat BChE.
In assay [11] the target is Acetylcholinesterase and butyrylcholinesterase (AChE and BChE) (Rattus norvegicus) (UniProt P37136+Q9JKC1). The experiment in a line: Selectivity index, ratio of IC50 for rat AChE to IC50 for rat BChE. In kind it is protein assay.
Acetylcholinesterase and butyrylcholinesterase (AChE and BChE) (Rattus norvegicus), sequence (Q9JKC1 1-597, one chain of several): as the sequence (Q9JKC1 whole entry) above
The target of assay [12] is T4, Acetylcholinesterase. As to the kind of experiment: Inhibition of rat AChE.
Assay [13] concerns the target T5, Acetylcholinesterase. The experiment in a line: Inhibition of recombinant human AChE using acetylthiocholine as substrate preincubated for 20 mins followed by substrate addition measured after 6 mins by Ellman's method.
Assay [14] addresses T6, Amine oxidase [flavin-containing] B (Homo sapiens, UniProt P27338).
T6 sequence (P27338 whole entry): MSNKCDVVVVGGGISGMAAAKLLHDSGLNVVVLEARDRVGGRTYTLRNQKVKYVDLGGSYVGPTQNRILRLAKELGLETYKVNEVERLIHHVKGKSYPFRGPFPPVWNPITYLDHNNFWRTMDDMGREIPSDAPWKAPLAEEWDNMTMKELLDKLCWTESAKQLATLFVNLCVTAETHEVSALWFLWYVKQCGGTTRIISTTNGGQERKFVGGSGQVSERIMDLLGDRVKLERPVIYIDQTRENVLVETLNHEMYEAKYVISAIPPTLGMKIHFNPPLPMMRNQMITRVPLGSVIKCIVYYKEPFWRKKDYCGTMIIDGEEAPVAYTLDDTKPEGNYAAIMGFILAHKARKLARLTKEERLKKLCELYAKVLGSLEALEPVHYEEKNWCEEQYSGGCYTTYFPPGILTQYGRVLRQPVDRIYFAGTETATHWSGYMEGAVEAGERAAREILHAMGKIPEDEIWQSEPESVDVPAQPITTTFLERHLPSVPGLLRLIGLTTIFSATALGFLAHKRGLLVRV
The experiment in a line: Inhibition of recombinant human MAO-B using p-tyramine as substrate preincubated for 15 mins followed by substrate addition measured upto 20 mins by Amplex red assay.

Assay [15] deals with T5, Acetylcholinesterase. As to the kind of experiment: Inhibition of human erythrocyte AChE using acetylthiocholine iodide as substrate preincubated for 6 mins followed by substrate addition measured upto 180 secs by Ellman's method.
In assay [16] the target is Acetylcholinesterase (Bos taurus, UniProt P23795).
Acetylcholinesterase (Bos taurus, UniProt P23795), sequence (P23795 whole entry): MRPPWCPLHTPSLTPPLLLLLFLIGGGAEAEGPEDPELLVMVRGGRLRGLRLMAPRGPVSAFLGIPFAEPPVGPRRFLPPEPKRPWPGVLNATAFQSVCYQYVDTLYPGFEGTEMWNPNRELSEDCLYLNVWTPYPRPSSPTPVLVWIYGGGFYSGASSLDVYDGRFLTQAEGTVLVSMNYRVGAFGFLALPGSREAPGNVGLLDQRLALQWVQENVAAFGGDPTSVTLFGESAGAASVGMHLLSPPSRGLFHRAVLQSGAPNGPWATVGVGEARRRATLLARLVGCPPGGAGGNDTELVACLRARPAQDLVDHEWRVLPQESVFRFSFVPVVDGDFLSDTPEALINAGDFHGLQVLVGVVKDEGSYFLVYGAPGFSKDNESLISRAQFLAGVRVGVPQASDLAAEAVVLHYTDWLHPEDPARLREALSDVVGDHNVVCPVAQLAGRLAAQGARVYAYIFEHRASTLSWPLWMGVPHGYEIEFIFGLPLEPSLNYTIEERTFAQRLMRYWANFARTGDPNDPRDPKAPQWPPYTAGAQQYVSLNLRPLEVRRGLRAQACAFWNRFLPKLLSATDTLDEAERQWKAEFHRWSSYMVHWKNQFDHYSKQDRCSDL
Description: Inhibition of bovine AChE
Assay [17] addresses T1, Cholinesterase. The experiment in a line: Inhibition of equine BChE.
The target of assay [18] is T7, Amine oxidase [flavin-containing] A (Homo sapiens, UniProt P21397).
T7 sequence (P21397 whole entry): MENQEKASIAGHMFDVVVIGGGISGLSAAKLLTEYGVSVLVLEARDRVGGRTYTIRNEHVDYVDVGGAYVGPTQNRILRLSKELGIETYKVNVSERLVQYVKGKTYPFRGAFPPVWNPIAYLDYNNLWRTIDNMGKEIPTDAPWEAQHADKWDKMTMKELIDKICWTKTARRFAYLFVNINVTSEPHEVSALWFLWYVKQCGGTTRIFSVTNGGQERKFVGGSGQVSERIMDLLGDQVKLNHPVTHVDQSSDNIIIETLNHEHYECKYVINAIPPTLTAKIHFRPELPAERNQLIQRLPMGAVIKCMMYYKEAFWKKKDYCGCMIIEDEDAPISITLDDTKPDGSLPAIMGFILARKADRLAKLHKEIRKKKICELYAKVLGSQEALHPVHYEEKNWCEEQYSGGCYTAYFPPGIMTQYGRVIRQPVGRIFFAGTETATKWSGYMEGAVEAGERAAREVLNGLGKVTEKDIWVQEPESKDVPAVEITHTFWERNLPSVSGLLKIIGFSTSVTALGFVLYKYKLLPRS
As to the kind of experiment: Displacement of 14C-5-hydroxytryptamine creatinine disulfate from MAO-A (unknown origin) preincubated for 60 mins followed by substrate addition measured after 30 mins in presence of selegiline by liquid scintillation counting method. A general note: Displacement assays read how much labelled ligand stays bound in the presence of the test substance.

Assay [19] concerns the target T1, Cholinesterase. As to the kind of experiment: Inhibition of equine serum BChE using butyrylthiocholine as substrate preincubated for 60 mins by Ellman's method.
Assay [20] is described as follows: Selectivity index, ratio of IC50 for human red blood cell AChE to IC50 for equine serum BChE.
For assay [21], the target named is T6, Amine oxidase [flavin-containing] B. As to the kind of experiment: Displacement of 14C-phenylethylamine from MAO-B (unknown origin) preincubated for 60 mins followed by substrate addition measured after 20 mins in presence of clorgyline by liquid scintillation counting method.
Assay [22] deals with Muscarinic acetylcholine receptor M1 (Homo sapiens, UniProt P11229). As to the kind of experiment: Binding affinity to Muscarinic acetylcholine receptor M1 (unknown origin) assessed as inhibition constant.
Assay [23] addresses T5, Acetylcholinesterase. As to the kind of experiment: Inhibition of human AChE.
For assay [24], the target named is Muscarinic acetylcholine receptor M3 (Homo sapiens, UniProt P20309). As to the kind of experiment: Binding affinity to Muscarinic acetylcholine receptor M3 (unknown origin) assessed as inhibition constant.
In assay [25] the target is Muscarinic acetylcholine receptor M2 (Homo sapiens, UniProt P08172). The experiment in a line: Binding affinity to Muscarinic acetylcholine receptor M2 (unknown origin) assessed as inhibition constant.
The target in assay [26] is T7, Amine oxidase [flavin-containing] A. As to the kind of experiment: Inhibition of recombinant human MAO-A using p-tyramine as substrate preincubated for 15 mins followed by substrate addition measured upto 20 mins by Amplex red assay.

T1 sequence (P81908 whole entry): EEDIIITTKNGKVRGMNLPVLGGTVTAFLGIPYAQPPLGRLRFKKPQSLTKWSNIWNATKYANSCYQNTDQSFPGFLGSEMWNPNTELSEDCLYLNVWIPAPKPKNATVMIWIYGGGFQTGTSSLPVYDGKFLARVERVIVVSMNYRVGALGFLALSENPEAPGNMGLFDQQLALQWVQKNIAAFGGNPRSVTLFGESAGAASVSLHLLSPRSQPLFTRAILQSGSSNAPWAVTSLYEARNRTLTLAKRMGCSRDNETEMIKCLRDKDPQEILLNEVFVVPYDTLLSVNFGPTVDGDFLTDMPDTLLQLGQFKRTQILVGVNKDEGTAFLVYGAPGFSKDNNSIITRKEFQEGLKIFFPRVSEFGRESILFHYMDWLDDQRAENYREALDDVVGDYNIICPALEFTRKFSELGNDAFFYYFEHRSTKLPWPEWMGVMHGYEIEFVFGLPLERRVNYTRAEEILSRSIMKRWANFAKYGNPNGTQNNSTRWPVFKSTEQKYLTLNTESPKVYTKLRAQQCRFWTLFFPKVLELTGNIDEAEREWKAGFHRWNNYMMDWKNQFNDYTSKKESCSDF
T2 sequence (O42275 whole entry): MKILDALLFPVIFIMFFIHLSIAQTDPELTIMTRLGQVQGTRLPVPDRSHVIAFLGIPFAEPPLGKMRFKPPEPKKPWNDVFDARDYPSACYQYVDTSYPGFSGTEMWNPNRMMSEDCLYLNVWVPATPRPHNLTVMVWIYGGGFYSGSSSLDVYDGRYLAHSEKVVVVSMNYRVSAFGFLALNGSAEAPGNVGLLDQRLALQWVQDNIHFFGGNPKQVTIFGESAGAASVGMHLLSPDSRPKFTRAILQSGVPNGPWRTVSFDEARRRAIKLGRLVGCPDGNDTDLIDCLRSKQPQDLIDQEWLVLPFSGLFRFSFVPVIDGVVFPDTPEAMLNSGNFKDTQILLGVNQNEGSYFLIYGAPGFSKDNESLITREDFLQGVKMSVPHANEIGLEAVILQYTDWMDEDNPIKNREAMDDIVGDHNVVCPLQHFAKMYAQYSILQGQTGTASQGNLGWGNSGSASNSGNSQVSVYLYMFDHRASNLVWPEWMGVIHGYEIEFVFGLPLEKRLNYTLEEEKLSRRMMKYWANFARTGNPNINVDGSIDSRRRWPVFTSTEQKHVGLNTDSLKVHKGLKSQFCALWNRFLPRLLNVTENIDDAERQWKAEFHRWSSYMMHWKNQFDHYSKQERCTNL
Cholinesterases; ACHE & BCHE (Homo sapiens), sequence (P06276 whole entry, looked up): as the sequence (P06276 whole entry) above
Cholinesterases; ACHE & BCHE (Homo sapiens), sequence (P22303 whole entry, looked up): as the sequence (P22303 whole entry) above
Carbonic anhydrase 1, sequence (P00915 whole entry): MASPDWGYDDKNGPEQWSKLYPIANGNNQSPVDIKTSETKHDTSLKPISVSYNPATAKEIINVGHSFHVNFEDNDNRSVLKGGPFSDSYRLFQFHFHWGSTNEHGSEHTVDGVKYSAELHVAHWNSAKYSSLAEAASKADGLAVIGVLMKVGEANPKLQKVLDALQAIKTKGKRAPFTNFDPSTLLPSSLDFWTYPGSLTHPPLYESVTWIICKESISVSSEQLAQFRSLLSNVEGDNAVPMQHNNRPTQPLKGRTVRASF

A word on the IC50: it is the midpoint of a concentration-inhibition curve. Turning to `O=C(Nc1ccccc1)Oc1cccc(CN2CCN(c3ccccc3)CC2)c1`, the IC50 on Cholinesterase [1] turned out to be 2 µM.
Molecule `CCOC(=O)Nc1ccc(N2CCN(c3ccccc3OC)CC2)cc1` registered an IC50 on Acetylcholinesterase [2] of 0.0935 µM.
Regarding `COc1cc2c(cc1OC)C(=O)C(Cc1ccc(OC(=O)Nc3ccc(Cl)cc3)cc1)C2` (centres undefined), on Acetylcholinesterase [3], the midpoint of inhibition, the IC50, lay at 4.64 µM.
Take `O=C(Oc1ccc(/C=C/c2cc(OC(=O)N3CCN(Cc4ccccc4)CC3)cc(OC(=O)N3CCN(Cc4ccccc4)CC3)c2)cc1)N1CCN(Cc2ccccc2)CC1`: the IC50 is 1.13 µM on Butyrylcholinesterase [4] and 4.11 µM on Acetylcholinesterase [5].
The term Ki denotes a measure of affinity in units of concentration, obtained from inhibition or displacement. Take `COc1cc2c(c(OC)c1)CC(NC(=O)OCc1ccccc1)C2` (centres undefined): the Ki is 0.00561 µM at Carbonic anhydrase 1, 0.000261 µM at Acetylcholinesterase [6] and 0.00739 µM on Carbonic anhydrase 2.
`CN(CCCOc1ccc2ccc(=O)oc2c1)Cc1cccc(OC(=O)NC2CCCC2)c1`: the IC50 in [7] turned out to be 0.00253 µM; at Cholinesterase [8], 0.00642 µM. In [9], the Ratio IC50 worked out at 61.9.
Regarding `CN(C)C(=O)Oc1cc(OC(=O)N(C)C)cc(C(O)CNC(C)(C)C)c1` (centres undefined) [BAMBUTEROL], the IC50 on Butyrylcholinesterase [10] was 0.003 µM; on Acetylcholinesterase [12] it was 30 µM. The Ratio IC50 in [11] was 10000.
For the molecule `CC[C@@]1(c2cccc(OC(=O)Nc3ccccc3)c2)CCCCN(C)C1`, the IC50 on Acetylcholinesterase [13] was determined as 0.274 µM.
As for `Cc1c(Cl)c(=O)oc2cc(OCCCCSC(=S)N3CCCCC3C)ccc12` (centres undefined), the figures for the IC50 (in assay [14]; against Acetylcholinesterase [15]) were 0.876 µM and 0.0068 µM, respectively.
As for `CCN(C)C(=O)Oc1cccc2c1NCC2CCC(=O)OC` (centres undefined), the IC50 against Acetylcholinesterase [16] came out at 0.008 µM; at Cholinesterase [17] it was 61.6 µM.
`C#CCN(C)C(C)Cc1cccc(OC(=O)N(C)CC)c1` (centres undefined): the IC50 in assay [18] is 0.12 µM; against Cholinesterase [19], 1.5 µM; in assay [21] it was 0.1 µM. Besides, in assay [20], the Ratio IC50 turned out to be 153.
In the case of `CNC(=O)Oc1cccc2c1CCC1C2CCN1CCC1CCCCC1` (centres undefined), the Ki stood at 0.657 µM in [22], 1.52 µM in assay [24] and 0.132 µM in assay [25]. Besides, 0.058 µM corresponded to half-maximal inhibition against Acetylcholinesterase [23] (IC50).
In the case of `Cc1c(Cl)c(=O)oc2cc(OCCCCSC(=S)N3C(C)CCCC3C)ccc12` (centres undefined), the IC50 stood at 5.85 µM in assay [26] and 0.114 µM on Acetylcholinesterase [15].

(Values after ChEMBL document CHEMBL5214927, “Recent advance on carbamate-based cholinesterase inhibitors as potential multifunctional agents against Alzheimer's disease” (Eur J Med Chem, 2022).)
